Measured values from patent US11339156B2, “3-(1H-pyrazol-4-yl)pyridine allosteric modulators of the M4 muscarinic acetylcholine receptor” (Merck Sharp & Dohme Corp., priority 2017, dated 2022).
pEC50: −log10 of the molar value.

These compounds were tested against T1, human M4 muscarinic acetylcholine receptor (Homo sapiens, UniProt P08173) (assay: human FLIPR-based M4 PAM assay (CHO-K1 cells with human M4 receptor and Gαqi5, calcium dye fluorescence)). Details: inflection point of 4 parameter logistic fit; acetylcholine added at 20% of maximum response; read-out: M4PAM IP.
T1 construct: expressed in transfected cells
T1 sequence (P08173 1-479): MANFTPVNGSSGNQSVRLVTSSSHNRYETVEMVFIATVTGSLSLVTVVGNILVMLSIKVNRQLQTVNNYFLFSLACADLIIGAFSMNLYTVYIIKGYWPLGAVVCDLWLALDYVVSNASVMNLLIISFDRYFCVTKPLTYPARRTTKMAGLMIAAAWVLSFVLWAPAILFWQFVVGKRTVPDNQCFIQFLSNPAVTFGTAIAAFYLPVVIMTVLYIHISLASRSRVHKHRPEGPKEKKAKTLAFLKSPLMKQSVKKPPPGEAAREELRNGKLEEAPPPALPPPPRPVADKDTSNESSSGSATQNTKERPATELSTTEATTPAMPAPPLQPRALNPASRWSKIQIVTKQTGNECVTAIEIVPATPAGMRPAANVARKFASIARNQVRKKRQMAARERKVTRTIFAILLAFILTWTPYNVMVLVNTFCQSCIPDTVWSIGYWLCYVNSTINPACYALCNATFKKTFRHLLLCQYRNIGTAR
Format: cell-based
Procedure: In a typical experiment the M4 muscarinic acetylcholine receptor modulating activity of the compounds of the present invention was determined in accordance with the following experimental method. CHO-K1 cells stably transfected with human M4 receptor and chimeric G-protein Gαqi5 (Coward P, et al., Analytical Biochemistry, 270:242-248 (1999)) are thawed from liquid N2 storage, resuspended in growth medium, plated in black, clear bottom 384 well plates, and incubated 16-20 hours at 37° C., 5% CO2. On the day of assay, growth medium is removed, the cells are washed 2 times with wash buffer, and cells are incubated in dye loading buffer at 37° C., 5% CO2 for ˜1 hour. Following dye loading the cell plates are placed in a FLIPR Tetra instrument and while monitoring dye fluorescence (excitation […]), 10 uL of test substance at increasing concentrations is added, and fluorescence values are recorded for 4 min. Next, 10 uL of acetylcholine is added (final concentration calculated so as to achieve 20% of the maximum acetycholine response), and the fluorescence reading is continued for 3.5 min. In some cases, a third addition of acetylcholine (final concentration calculated to achieve 70% of the maximal acetylcholine response) is performed. The resulting dose response curves are fit to a 4 parameter logistic equation and the final result is determined as the inflection point (IP) of the curve
CHO-K1 cells stably transfected with human M4 receptor and chimeric G-protein Gαqi5 are thawed from liquid N2 storage, resuspended in growth medium, plated in black, clear bottom 384 well plates, and incubated 16-20 hours at 37° C., 5% CO2.
On the day of assay, growth medium is removed, the cells are washed 2 times with wash buffer, and cells are incubated in dye loading buffer at 37° C., 5% CO2 for ˜1 h. Following dye loading the cell plates are placed in a FLIPR Tetra instrument and while monitoring dye fluorescence ([…]), 10 uL of test substance at increasing concentrations is added, and fluorescence values are recorded for 4 min. Next, 10 uL of acetylcholine is added (final concentration calculated so as to achieve 20% of the maximum acetycholine response), and the fluorescence reading is continued for 3.5 min. In some cases, a third addition of acetylcholine (final concentration calculated to achieve 70% of the maximal acetylcholine response) is performed.

| Compound | pEC50 |
| --- | --- |
| CC(C)CCn1cc(-c2ccc(Cl)nc2-c2ccc3c(c2)C(=O)N(Cc2ccccc2F)C3)cn1 [Example 113, 6-{6-chloro-3-[1-(3-methylbutyl)-1H-pyrazol-4-yl]pyridin-2-yl}-2-(2-fluorobenzyl)-2,3-dihydro-1H-isoindol-1-one] | 7.27 |
| CC(C)(C)Cn1cc(-c2ccc(C#N)nc2-c2ccn3cc(C(F)F)nc3c2)cn1 [Example 64, 6-[2-(difluoromethyl)imidazo [1,2-a]pyridin-7-yl]-5-[1-(2,2-dimethylpropyl)-1H-pyrazol-4-yl]pyridine-2-carbonitrile] | 7.83 |
| Cc1ccc(-c2cnn(CC3(C)CCCCC3)c2)c(-c2cnc3c(c2)ncn3C)n1 [Example 5, 3-methyl-6-(6-methyl-3-{1-[(1-methylcyclohexyl)methyl]-1H-pyrazol-4-yl}pyridin-2-yl)-3H-imidazo[4,5-b]pyridine] | 7.41 |
| Cc1ccc(-c2cnn(CC3CC3(C)C)c2)c(-c2ccn3ccnc3c2)n1 (stereo not shown) [Example 109, 7-(3-{1-[(2,2-dimethylcyclopropyl)methyl]-1H-pyrazol-4-yl}-6-methylpyridin-2-yl)imidazo[1,2-a]pyridine] | 7.12 |
| Cc1cn2ccc(-c3ncccc3-c3cnn(CC4(CC(F)F)CC4)c3)cc2n1 [Example 17, 7-[3-(1-{[1-(2,2-difluoroethyl)cyclo-propyl]methyl}-1H-pyrazol-4-yl)pyridin-2-yl]-2-methylimidazo[1,2-a]pyridine] | 6.56 |
| Cc1ccc(-c2cnn(CC3(C)CCCCC3)c2)c(-c2ccc3cn[nH]c3c2)n1 [Example 3, 6-(6-methyl-3-{1-[(1-methylcyclohexyl)methyl]-1H-pyrazol-4-yl}pyridin-2-yl)-1H-indazole] | 7.18 |
| Cc1ccc(-c2cnn(CC(C)(C)C)c2)c(-c2ccn3cnnc3c2)n1 [Example 71, 7-{3-[1-(2,2-dimethylpropyl)-1H-pyrazol-4-yl]-6-methylpyridin-2-yl}[1,2,4]triazolo[4,3-a]pyridine] | 7.25 |
| Cc1cn2ccc(-c3nc(C#N)ccc3-c3cnn(CCC(C)(C)C#N)c3)cc2n1 [Example 49, 5-[1-(3-cyano-3-methylbutyl)-1H-pyrazol-4-yl]-6-(2-methylimidazo[1,2-a]pyridin-7-yl)pyridine-2-carbonitrile] | 6.76 |
| N#Cc1ccc(-c2cnn(CCC3CC3)c2)c(-c2ccn3ccnc3c2)n1 [Example 45, 5-[1-(2-cyclopropylethyl)-1H-pyrazol-4-yl]-6-imidazo[1,2-a]pyridin-7-ylpyridine-2-carbonitrile] | 7.45 |
| Cc1ccc(-c2cnn(CCC(C)(C)F)c2)c(-c2ccc3c(c2)C(=O)N(C)C3)n1 [Example 9, 6-{3-[1-(3-fluoro-3-methylbutyl)-1H-pyrazol-4-yl]-6-methylpyridin-2-yl}-2-methyl-2,3-dihydro-1H-isoindol-1-one] | 7.09 |
| Cc1ccc(-c2cnn(CCC(C)C)c2C#N)c(-c2ccn3ccnc3c2)n1 [Example 136, 4-(2-imidazo[1,2-a]pyridin-7-yl-6-methylpyridin-3-yl)-1-(3-methylbutyl)-1H-pyrazole-5-carbonitrile] | 6.13 |
| COCc1cn2ccc(-c3nc(C#N)ccc3-c3cnn(CC(C)(C)C)c3)cc2n1 [Example 104, 5-[1-(2,2-dimethylpropyl)-1H-pyrazol-4-yl]-6-[2-(methoxymethyl)imidazo[1,2-a]pyridin-7-yl]pyridine-2-carbonitrile] | 7.35 |
| CC(C)CCn1cc(-c2cc(Cl)cnc2-c2ccc3scnc3c2)cn1 [Example 78, 5-{5-chloro-3-[1-(3-methylbutyl)-1H-pyrazol-4-yl]pyridin-2-yl}-1,3-benzothiazole] | 6.69 |
| Cc1ccc(-c2cnn(CCC(C)C)c2)c(-c2ccc3c(c2)CNC3)n1 [Example 75, 5-{6-methyl-3-[1-(3-methylbutyl)-1H-pyrazol-4-yl]pyridin-2-yl}-2,3-dihydro-1H-isoindole] | 6.97 |
| Cc1ccc(-c2cnn(CC(C)C)c2)c(-c2ccc3c(c2)C(=O)N(C2CC2)C3)n1 [Example 96, 2-cyclopropyl-6-{6-methyl-3-[1-(2-methylpropyl)-1H-pyrazol-4-yl]pyridin-2-yl}-2,3-dihydro-1H-isoindol-1-one] | 6.71 |

The remaining lines, values ahead:

| pEC50 | Compound |
| --- | --- |
| 7.05 | Cc1cn2ccc(-c3nc(C#N)ccc3-c3cnn(CCC(O)C(F)(F)F)c3)cc2n1 (stereo not shown) [Example 43, 6-(2-methylimidazo[1,2-a]pyridin-7-yl)-5-[1-(4,4,4-trifluoro-3-hydroxybutyl)-1H-pyrazol-4-yl]pyridine-2-carbonitrile] |
| 6.90 | N#Cc1ccc(-c2cnn(CC3(C(F)(F)F)CC3)c2)c(-c2ccn3ccnc3c2)n1 [Example 56, 6-imidazo[1,2-a]pyridin-7-yl-5-(1-{[1-(trifluoromethyl)cyclo-propyl]methyl}-1H-pyrazol-4-yl)pyridine-2-carbonitrile] |
| 7.35 | CN1Cc2ccc(-c3nc(C#N)ccc3-c3cnn(CC(C)(C)C(F)F)c3)cc2C1=O [Example 97, 5-[1-(3,3-difluoro-2,2-dimethylpropyl)-1H-pyrazol-4-yl]-6-(2-methyl-3-oxo-2,3-dihydro-1H-isoindol-5-yl)pyridine-2-carbonitrile] |
| 6.75 | Cc1nc2cc(-c3nc(C#N)ccc3-c3cnn(CC4(C(F)(F)F)CC4)c3)ccc2o1 [Example 55, 6-(2-methyl-1,3-benzoxazol-5-yl)-5-(1-{[1-(trifluoromethyl)cyclo-propyl]methyl}-1H-pyrazol-4-yl)pyridine-2-carbonitrile] |
| 7.09 | Cc1nc2cc(-c3nc(C#N)ccc3-c3cnn(CC(F)C(C)(F)F)c3)ccc2n1C (stereo not shown) [Example 32, 6-(1,2-dimethyl-1H-benzimidazol-5-yl)-5-[1-(2,3,3-trifluorobutyl)-1H-pyrazol-4-yl]pyridine-2-carbonitrile] |
| 6.70 | Cc1cn2ccc(-c3nc(C#N)ccc3-c3cnn(CC(F)(F)C(F)F)c3)cc2n1 [Example 22, 6-(2-methylimidazo[1,2-a]pyridin-7-yl)-5-[1-(2,2,3,3-tetrafluoropropyl)-1H-pyrazol-4-yl]pyridine-2-carbonitrile] |
| 7.11 | Cc1cn2ccc(-c3nc(C#N)ccc3-c3cnn(CC(C)(C)F)c3)cc2n1 [Example 122, 5-(1-(2-fluoro-2-methylpropyl)-1H-pyrazol-4-yl)-6-(2-methylimidazo[1,2-a]pyridin-7-yl)picolinonitrile] |
| 7.51 | CC(C)C(F)(F)Cn1cc(-c2ccc(C#N)nc2-c2ccn3ccnc3c2)cn1 [Example 21, 5-[1-(2,2-difluoro-3-methylbutyl)-1H-pyrazol-4-yl]-6-imidazo[1,2-a]pyridin-7-ylpyridine-2-carbonitrile] |
| 7.33 | Cc1nc2cc(-c3nc(C#N)ccc3-c3cnn(CC(C)(C)C)c3)ccn2n1 [Example 63, 6-(2-methyl-[1,2,4]triazolo[1,5-a]pyridin-7-yl)-5-(1-neopentyl-1H-pyrazol-4-yl)picolinonitrile] |
| 7.32 | Cc1nc2cc(-c3nc(C#N)ccc3-c3cnn(C[C@]4(F)C[C@@H](F)C4)c3)ccc2n1C [Example 128, 5-(1-(((1s,3s)-1,3-difluorocyclobutyl)methyl)-1H-pyrazol-4-yl)-6-(1,2-dimethyl-1H-benzo[d]imidazol-5-yl)picolinonitrile] |
| 7.25 | Cn1nnc2cc(-c3nc(C#N)ccc3-c3cnn(CC(C)(C)C)c3)ccc21 [Example 68, 5-[1-(2,2-dimethylpropyl)-1H-pyrazol-4-yl]-6-(1-methyl-1H-benzotriazol-5-yl)pyridine-2-carbonitrile] |
| 7.21 | CCC(F)(F)Cn1cc(-c2ccc(C#N)nc2-c2ccn3ccnc3c2)cn1 [Example 18, 5-[1-(2,2-difluorobutyl)-1H-pyrazol-4-yl]-6-imidazo[1,2-a]pyridin-7-ylpyridine-2-carbonitrile] |
| 6.63 | Fc1cc(-c2cnn(CC3(C(F)(F)F)CC3)c2)c(-c2ccn3ccnc3c2)nc1F [Example 53, 7-(5,6-difluoro-3-(1-((1-(trifluoromethyl)cyclopropyl)methyl)-1H-pyrazol-4-yl)pyridin-2-yl)imidazo[1,2-a]pyridine] |
